{"source": "patent US20030162756A1", "about": "“Use of 2-hydroxy or 2-acetyloxy-4-trifluoromethylbenzoic acid derivatives as an agent for the treatment and prevention of mild cognitive impairment” (J. Uriach & CIA. S.A., priority 2001, published 2003)", "origin": "cited, not measured here", "system": "platelet aggregation", "conditions": "described in U.S. Pat. No. 4,096,252; cited from earlier work"}
{"smiles": "O=C(O)c1ccc(C(F)(F)F)cc1O", "note": "[HTB, 2-hydroxy-4-trifluoromethylbenzoic acid]", "values": [{"measurement": "activity as platelet anti-aggregant", "value": "remarkable activity as platelet anti-aggregant"}]}
